Structures can show the parent of a compound that is named as a salt.
Test system: muscle progenitors derived from DMD hiPSC
Experiment: Myotube assay: total myotube area per well (alpha-actinin staining)
Format: cell-based, human
Details: Homo sapiens, Myotube, 72 h, DMD or WT cell source not given; for Emax: efficacy, MA = normalized Myotube Area, 3 days incubation; for EC50: myogenic activity, half-maximal generation of myotubes, 10 points dose-response 1.5 nM to 30 µM, 3 days
Description: An in vitro assay for assessing the efficacy of compounds for use in treating, ameliorating, delaying, curing and/or preventing a disease or condition associated with muscle cells and/or satellite cells is described in example 78. Herein, the generation of myotubes and satellite cells after adding a compound to a myotube assay workflow is assessed. Said myotube assay workflow is derived from wild-type or DMD human induced pluripotent stem cells (WT hiPSC or DMD hiPSC). Before the addition of said compound, the assay comprises satellite-like cells, but no significant amount of myotubes.
The efficacy of said compound for use in treating, ameliorating, delaying, curing and/or preventing a disease or condition associated with muscle cells and/or satellite cells is positively correlated with the generation of myotubes (i.e. the increase of the area occupied by myotubes on the assay) and/or satellite cells (i.e. the increase of the number of satellite cells) in the assay after adding said compound. The generation of myotubes by the addition of said compound is expressed as the EC50 value, the concentration of said compound that corresponds with the half-maximal generation of myotubes, and the MA (normalized myotube area) value, the normalized area occupied by generated myotubes on the assay. […] Since muscle cells are formed from myotubes during myogenesis, the generation of myotubes in the assay is a good indicator of the ability of said compound to induce the formation of functional muscle cells in vivo. The number of satellite cells is measured as the percentage of Pax7 positive cells, relative to the total number of cells in the assay, as shown in Figure 3. The percentage of Pax7 is a good indicator of the ability of said compound to induce the formation of satellite cells which are able to play a role in muscle repair and regeneration in vivo.
DMD human induced pluripotent stem cells (hereafter "DMD hiPSC"), generated from the NCRM-1 hiPSC WT cell line by gene editing, or WT human induced pluripotent stem cells (hereafter "WT hiPSC"), being NCRM-1 hiPSC wt cell line, have been differentiated according to Chal et al. 2015, 2016, to produce muscle progenitors (hereafter "hMP"). The hMP population contains satellite-like cells (i.e Pax7-positive cells) and satellite cells' progenies (i.e. Myogenin-positive cells).
Figure 1 provides an example of a Myotube assay workflow. At day 0, hMP are thawed and 3.1 million cells are plated into a T75-flask coated with hESC-qualified Matrigel™ (Corning) in SkGM proliferating medium (PromoCells), supplemented with 5 µM Y-27632 (Tocris Bioscience). On day 2, SkGM proliferating medium is refreshed. On day 4, hMP are harvested and transferred into a 384-well plate coated with collagen type I at a density of 3500 cells/well in a DMEM-based medium, containing 5% of knockout serum replacement (Gibco), 1% PenStrep (Gibco), 1% MEM NEAA (Gibco) and 0.1 mM 2-mercaptoethanol (Gibco) (hereafter "K5 medium") and 5 µM Y-27632. Compounds to be tested are then added in the medium and incubated for 3 days at 37°C. On day 7, cells are fixed and immunostained. For example, myotubes (alpha-actinin staining) and satellite-like (Pax7 staining) cells can be analyzed for total myotube area per well or Pax7-positive cell quantification.
DMD hMP were put in the Myotube assay according to the workflow described in Example 2.1. In particular, compound (i) was added at concentrations ranging from 1.5 nM to 30 µM, starting from day 4. hMP were cultivated for three more days in presence of compound (i), then fixed and analyzed for quantification of total myotube area per well. Duplicates of each condition were averaged.

EC50	Structure (SMILES)	Emax
< 500 nM	CSc1cc(Oc2ccnc3c2CCC(=O)N3)ccc1NC(=O)Nc1cc(C(C)(C)C)nn1-c1ccc(C)cc1 [(by), 1-(3-(tert-butyl)-1-(p-tolyl)-1H-pyrazol-5-yl)-3-(2-(methylthio)-4-((7-oxo-5,6,7,8-tetrahydro-1,8-naphthyridin-4-yl)oxy)phenyl)urea]	≥ 75%
< 500 nM	CSc1cc(Oc2ccnc3c2CCC(=O)N3)ccc1NC(=O)Nc1cc(C(C)(C)C)nn1-c1cccc(Cl)c1 [(bz), 1-(3-(tert-butyl)-1-(3-chlorophenyl)-1H-pyrazol-5-yl)-3-(2-(methylthio)-4-((7-oxo-5,6,7,8-tetrahydro-1,8-naphthyridin-4-yl)oxy)phenyl)urea]	≥ 75%
≥ 5000 nM	CCC(C)c1cc(NC(=O)Nc2ccc(Oc3ccnc4[nH]c(=O)cnc34)cc2F)n(-c2ccccc2)n1 (stereo not drawn) [(c), 1-(3-(sec-butyl)-1-phenyl-1 H-pyrazol-5-yl)-3-(2-fluoro-4-((3-oxo-3,4-dihydropyrido[2,3-b]pyrazin-8-yl)oxy)phenyl)urea]	50 to 75%
≥ 5000 nM	CSc1cc(Oc2ccnc3[nH]c(=O)cnc23)ccc1NC(=O)Nc1nc(C(C)(C)C)cs1 [(ca), 1-(4-(tert-butyl)thiazol-2-yl)-3-(2-(methylthio)-4-((3-oxo-3,4-dihydropyrido[2,3-b]pyrazin-8-yl)oxy)phenyl)urea]	≥ 75%
< 500 nM	CSc1cc(Oc2ccnc3c2CCC(=O)N3)ccc1NC(=O)Nc1ncc(C(C)(C)C)s1 [(cb), 1-(5-(tert-butyl)thiazol-2-yl)-3-(2-(methylthio)-4-((7-oxo-5,6,7,8-tetrahydro-1,8-naphthyridin-4-yl)oxy)phenyl)urea]	≥ 75%
< 500 nM	CSc1cc(Oc2ccnc3[nH]c(=O)cnc23)ccc1NC(=O)Nc1cc(C(C)(C)C)nn1-c1ccc(C#N)cc1 [(cc), 1-(3-(tert-butyl)-1-(4-cyanophenyl)-1H-pyrazol-5-yl)-3-(2-(methylthio)-4-((3-oxo-3,4-dihydropyrido[2,3-b]pyrazin-8-yl)oxy)phenyl)urea]	≥ 75%
< 500 nM	CSc1cc(Oc2ccnc3[nH]c(=O)cnc23)ccc1NC(=O)Nc1cc(C(C)(C)C)nn1-c1ccc(C)c(C)c1 [(cd), 1-(3-(tert-butyl)-1-(3,4-dimethylphenyl)-1H-pyrazol-5-yl)-3-(2-(methylthio)-4-((3-oxo-3,4-dihydropyrido[2,3-b]pyrazin-8-yl)oxy)phenyl)urea]	≥ 75%
< 500 nM	CSc1cc(Oc2ccnc3[nH]c(=O)cnc23)ccc1NC(=O)Nc1cc(C(C)(C)C)nn1-c1ccc(OCCN2CCCCC2)cc1 [(ce), 1-(3-(tert-butyl)-1-(4-(2-(piperidin-1-yl)ethoxy)phenyl)-1H-pyrazol-5-yl)-3-(2-(methylthio)-4-((3-oxo-3,4-dihydropyrido[2,3-b]pyrazin-8-yl)oxy)phenyl)urea]	≥ 75%
500 to 1000 nM	CSc1cc(Oc2ccnc3[nH]c(=O)cnc23)ccc1NC(=O)Nc1cc(C(C)(C)C)nn1-c1ccc(OCCN2CCOCC2)cc1 [(cf), 1-(3-(tert-butyl)-1-(4-(2-morpholinoethoxy)phenyl)-1 H-pyrazol-5-yl)-3-(2-(methylthio)-4-((3-oxo-3,4-dihydropyrido[2,3-b]pyrazin-8-yl)oxy)phenyl)urea]	≥ 75%
≥ 5000 nM	CSc1cc(Oc2ccnc3c2CCC(=O)N3)ccc1NC(=O)Nc1cncc(C(F)(F)F)c1 [(cg), 1-(2-(methylthio)-4-((7-oxo-5,6,7,8-tetrahydro-1,8-naphthyridin-4-yl)oxy)phenyl)-3-(5-(trifluoromethyl)pyridin-3-yl)urea]	≥ 75%
≥ 5000 nM	CSc1cc(Oc2ccnc(N(CCN(C)C)C(=O)OC(C)(C)C)c2)ccc1NC(=O)Nc1cc(C(C)(C)C)nn1-c1ccccc1 [(ch), tert-butyl (4-(4-(3-(3-(tert-butyl)-1-phenyl-1H-pyrazol-5-yl)ureido)-3-(methylthio)phenoxy)pyridin-2-yl)(2-(dimethylamino)ethyl)carbamate]	50 to 75%
≥ 5000 nM	CSc1cc(Oc2cccc3c2CCC(=O)N3)ccc1NC(=O)Nc1cc(C(C)(C)C)nn1-c1ccccc1 [(ci), 1-(3-(tert-butyl)-1-phenyl-1H-pyrazol-5-yl)-3-(2-(methylthio)-4-((2-oxo-1,2,3,4-tetrahydroquinolin-5-yl)oxy)phenyl)urea]	25 to 50%
≥ 5000 nM	CSc1cc(Oc2ccnc3[nH]c(=O)cnc23)ccc1NC(=O)Nc1nnc(C(C)(C)C)o1 [(cj), 1-(5-(tert-butyl)-1,3,4-oxadiazol-2-yl)-3-(2-(methylthio)-4-((3-oxo-3,4-dihydropyrido[2,3-b]pyrazin-8-yl)oxy)phenyl)urea]	≥ 75%
500 to 1000 nM	CSc1cc(Oc2ccnc(NCCN(C)C)c2)ccc1NC(=O)Nc1cc(C(C)(C)C)nn1-c1ccccc1 [(ck), 1-(3-(tert-butyl)-1-phenyl-1 H-pyrazol-5-yl)-3-(4-((2-((2-(dimethylamino)ethyl)amino)pyridin-4-yl)oxy)-2-(methylthio)phenyl)urea hydrochloride]	≥ 75%
< 500 nM	CSc1cc(Oc2ccnc3[nH]c(=O)cnc23)ccc1NC(=O)Nc1cc(C(C)(C)C)nn1-c1ccc(C)c(Cl)c1 [(cl), 1-(3-(tert-butyl)-1-(3-chloro-4-methylphenyl)-1H-pyrazol-5-yl)-3-(2-(methylthio)-4-((3-oxo-3,4-dihydropyrido[2,3-b]pyrazin-8-yl)oxy)phenyl)urea]	≥ 75%
500 to 1000 nM	CSc1cc(Oc2ccnc3[nH]c(=O)cnc23)ccc1NC(=O)Nc1cc(C(C)(C)C)nn1-c1ccc(F)c(Cl)c1 [(cm), 1-(3-(tert-butyl)-1-(3-chloro-4-fluorophenyl)-1H-pyrazol-5-yl)-3-(2-(methylthio)-4-((3-oxo-3,4-dihydropyrido[2,3-b]pyrazin-8-yl)oxy)phenyl)urea]	≥ 75%
1000 to 5000 nM	CSc1cc(Oc2cccc3[nH]ncc23)ccc1NC(=O)Nc1cc(C(C)(C)C)nn1-c1ccccc1 [(cn), 1-(4-((1H-indazol-4-yl)oxy)-2-(methylthio)phenyl)-3-(3-(tert-butyl)-1-phenyl-1H-pyrazol-5-yl)urea]	50 to 75%
≥ 5000 nM	CSc1cc(Oc2ccnc(C(=O)Nc3ccccc3)c2)ccc1NC(=O)Nc1cc(C(C)(C)C)nn1-c1ccccc1 [(co), 4-(4-(3-(3-(tert-butyl)-1-phenyl-1H-pyrazol-5-yl)ureido)-3-(methylthio)phenoxy)-N-phenylpicolinamide]	25 to 50%
500 to 1000 nM	CC(C)(C)c1cc(NC(=O)Nc2ccc(Oc3ccnc4[nH]c(=O)cnc34)c(OC(F)(F)F)c2)n(-c2ccccc2)n1 [(cp), 1-(3-(tert-butyl)-1-phenyl-1H-pyrazol-5-yl)-3-(4-((3-oxo-3,4-dihydropyrido[2,3-b]pyrazin-8-yl)oxy)-3-(trifluoromethoxy)phenyl)urea]	50 to 75%
500 to 1000 nM	CC(C)(C)c1cc(NC(=O)Nc2cc(Oc3ccnc4[nH]c(=O)cnc34)ccc2F)n(-c2ccccc2)n1 [(cq), 1-(3-(tert-butyl)-1-phenyl-1 H-pyrazol-5-yl)-3-(2-fluoro-5-((3-oxo-3,4-dihydropyrido[2,3-b]pyrazin-8-yl)oxy)phenyl)urea]	≥ 75%
< 500 nM	CSc1cc(Oc2ccnc3[nH]c(=O)cnc23)ccc1NC(=O)Nc1cc(C(C)(C)C)nn1-c1ccc(OCCCN(C)C)cc1 [(cr), 1-(3-(tert-butyl)-1-(4-(3-(dimethylamino)propoxy)phenyl)-1H-pyrazol-5-yl)-3-(2-(methylthio)-4-((3-oxo-3,4-dihydropyrido[2,3-b]pyrazin-8-yl)oxy)phenyl)urea]	≥ 75%

— patent EP4029501A1, “COMBINATION OF POLYAROMATIC UREA DERIVATIVES AND GLUCOCORTICOID OR HDAC INHIBITOR FOR THE TREATMENT OF DISEASES OR CONDITIONS ASSOCIATED WITH MUSCLE CELLS AND/OR SATELLITE CELLS” (Anagenesis Biotechnologies, priority 2021, dated 2022)
